# From PMC5218480 (PLoS ONE, 2017)
# System: MV-4-11 cells
# Assay: Gene expression microarray analysis (Affymetrix PrimeView) and GSEA
# Format: cell-based, human
# Design: RFU PODN (11730768_x_at) / Fold change /veh PODN (11730768_x_at) / RFU LINC00158 (11744669_a_at) / Fold change /veh LINC00158 (11744669_a_at) / RFU DUSP10 (11751237_a_at) / Fold change /veh DUSP10 (11751237_a_at) / RFU ID3 (11757404_x_at) / Fold change /veh ID3 (11757404_x_at) / RFU PLEKHG5 (11737974_s_at) / Fold change /veh PLEKHG5 (11737974_s_at) / RFU LRRC4B (11730491_at) / Fold change /veh LRRC4B (11730491_at) / RFU GIMAP4 (11747438_a_at) / Fold change /veh GIMAP4 (11747438_a_at) / RFU KRT8 (11758183_x_at) / Fold change /veh KRT8 (11758183_x_at) / RFU CNN1 (11734310_a_at) / Fold change /veh CNN1 (11734310_a_at) / RFU VPS37D (11726825_at) / Fold change /veh VPS37D (11726825_at) / RFU C10orf10 (11716522_x_at) / Fold change /veh C10orf10 (11716522_x_at) / RFU KIR2DL2 /// KIR2DL4 /// KIR2DL5A /// KIR2DL5B /// KIR2DS1 /// KIR2DS2 /// KIR2DS3 /// KIR2DS4 /// KIR3DL3 /// KIR3DL3 /// KIR3DS1 (11738374_at) / Fold change /veh KIR2DL2 /// KIR2DL4 /// KIR2DL5A /// KIR2DL5B /// KIR2DS1 /// KIR2DS2 /// KIR2DS3 /// KIR2DS4 /// KIR3DL3 /// KIR3DL3 /// KIR3DS1 (11738374_at) / RFU C1QL1 (11718748_at) / Fold change /veh C1QL1 (11718748_at) / RFU TMPRSS4 (11747572_a_at) / Fold change /veh TMPRSS4 (11747572_a_at) / RFU HAMP (11756126_x_at) / Fold change /veh HAMP (11756126_x_at) / RFU RNFT2 (11725882_a_at) / Fold change /veh RNFT2 (11725882_a_at) / RFU NR4A2 (11747474_a_at) / Fold change /veh NR4A2 (11747474_a_at) / RFU ABCC12 (11746883_a_at) / Fold change /veh ABCC12 (11746883_a_at) / RFU TMEM136 (11760407_x_at) / Fold change /veh TMEM136 (11760407_x_at) / RFU CLDN22 /// WWC2 (11732394_at) / Fold change /veh CLDN22 /// WWC2 (11732394_at) / RFU HLA-DPB1 (11760878_x_at) / Fold change /veh HLA-DPB1 (11760878_x_at) / RFU SPINT1 (11716480_a_at) / Fold change /veh SPINT1 (11716480_a_at) / RFU GAP43 (11754022_s_at) / Fold change /veh GAP43 (11754022_s_at) / RFU A4GNT (11735810_at) / Fold change /veh A4GNT (11735810_at) / RFU PRB3 (11715151_x_at) / Fold change /veh PRB3 (11715151_x_at) / RFU TUBB4B (11761932_at) / Fold change /veh TUBB4B (11761932_at) / RFU CAPN14 (11732068_a_at) / Fold change /veh CAPN14 (11732068_a_at) / RFU TMCC2 (11721928_a_at) / Fold change /veh TMCC2 (11721928_a_at) / RFU IRGQ (11745062_a_at) / Fold change /veh IRGQ (11745062_a_at) / RFU FAM174B (11720279_a_at) / Fold change /veh FAM174B (11720279_a_at) / RFU TMPRSS4 (11748680_a_at) / Fold change /veh TMPRSS4 (11748680_a_at) / RFU FAM212B (11763350_a_at) / Fold change /veh FAM212B (11763350_a_at) / RFU PLEKHG5 (11743358_a_at) / Fold change /veh PLEKHG5 (11743358_a_at) / RFU ZSCAN30 (11745921_a_at) / Fold change /veh ZSCAN30 (11745921_a_at) / RFU CMKLR1 (11741424_a_at) / Fold change /veh CMKLR1 (11741424_a_at) / RFU LOC101060620 /// MAPK8IP1 (11723275_at) / Fold change /veh LOC101060620 /// MAPK8IP1 (11723275_at) / RFU SPTSSB (11747773_x_at) / Fold change /veh SPTSSB (11747773_x_at) / RFU PRSS12 (11739890_at) / Fold change /veh PRSS12 (11739890_at) / RFU BIN1 (11741810_x_at) / Fold change /veh BIN1 (11741810_x_at) / RFU WNT11 (11732464_a_at) / Fold change /veh WNT11 (11732464_a_at) / RFU C10orf10 (11716521_a_at) / Fold change /veh C10orf10 (11716521_a_at) / RFU C5orf56 (11738089_at) / Fold change /veh C5orf56 (11738089_at) / RFU CYB561 (11721691_x_at) / Fold change /veh CYB561 (11721691_x_at) / RFU ANKRD19P (11752326_a_at) / Fold change /veh ANKRD19P (11752326_a_at) / RFU OR2T12 /// OR2T33 /// OR2T8 (11738714_s_at) / Fold change /veh OR2T12 /// OR2T33 /// OR2T8 (11738714_s_at) / RFU VCAN (11748164_a_at) / Fold change /veh VCAN (11748164_a_at) / RFU JSRP1 (11732532_at) / Fold change /veh JSRP1 (11732532_at) / RFU KRTAP10-11 (11738290_x_at) / Fold change /veh KRTAP10-11 (11738290_x_at) / RFU MYO3A (11730013_a_at) / Fold change /veh MYO3A (11730013_a_at) / RFU EBF3 (11725865_a_at) / Fold change /veh EBF3 (11725865_a_at) / RFU CAMK2N1 (11719241_x_at) / Fold change /veh CAMK2N1 (11719241_x_at) / RFU C5orf56 (11738088_a_at) / Fold change /veh C5orf56 (11738088_a_at) / RFU OLFML3 (11715873_a_at) / Fold change /veh OLFML3 (11715873_a_at) / RFU LOC100653217 /// NTM (11731650_a_at) / Fold change /veh LOC100653217 /// NTM (11731650_a_at) / RFU MAPK11 (11762145_a_at) / Fold change /veh MAPK11 (11762145_a_at) / RFU FIZ1 (11724087_x_at) / Fold change /veh FIZ1 (11724087_x_at) / RFU OASL (11726364_x_at) / Fold change /veh OASL (11726364_x_at) / RFU SOX15 (11748057_x_at) / Fold change /veh SOX15 (11748057_x_at) / RFU CD79A (11719716_a_at) / Fold change /veh CD79A (11719716_a_at) / RFU HIST1H1D (11736915_at) / Fold change /veh HIST1H1D (11736915_at) / RFU CASKIN2 (11723855_a_at) / Fold change /veh CASKIN2 (11723855_a_at) / RFU LOC730098 (11760151_x_at) / Fold change /veh LOC730098 (11760151_x_at) / RFU OR4N2 (11742367_at) / Fold change /veh OR4N2 (11742367_at) / RFU PRRT2 (11749266_a_at) / Fold change /veh PRRT2 (11749266_a_at) / RFU SNX32 (11753110_a_at) / Fold change /veh SNX32 (11753110_a_at) / RFU CDHR5 (11726645_a_at) / Fold change /veh CDHR5 (11726645_a_at) / RFU RCAN1 (11760418_a_at) / Fold change /veh RCAN1 (11760418_a_at) / RFU FAM167A (11723789_a_at) / Fold change /veh FAM167A (11723789_a_at) / RFU FAM26E (11764081_at) / Fold change /veh FAM26E (11764081_at) / RFU ISYNA1 (11749810_s_at) / Fold change /veh ISYNA1 (11749810_s_at) / RFU ACY1 (11761880_at) / Fold change /veh ACY1 (11761880_at) / RFU 11764098_at / Fold change /veh 11764098_at / RFU SAMD14 (11745864_x_at) / Fold change /veh SAMD14 (11745864_x_at) / RFU NPB (11741838_a_at) / Fold change /veh NPB (11741838_a_at) / RFU TMPRSS6 (11731388_a_at) / Fold change /veh TMPRSS6 (11731388_a_at) / RFU KRTAP10-2 (11738614_at) / Fold change /veh KRTAP10-2 (11738614_at) / RFU ARHGAP8 /// PRR5-ARHGAP8 (11727945_x_at) / Fold change /veh ARHGAP8 /// PRR5-ARHGAP8 (11727945_x_at) / RFU KRTAP5-7 /// NADSYN1 (11734609_at) / Fold change /veh KRTAP5-7 /// NADSYN1 (11734609_at) / RFU RASL12 (11751679_a_at) / Fold change /veh RASL12 (11751679_a_at) / RFU CDKN2B (11736163_a_at) / Fold change /veh CDKN2B (11736163_a_at) / RFU PRF1 (11729649_at) / Fold change /veh PRF1 (11729649_at) / RFU, ZNF638 /// ZNF638-IT1 / Fold change vs veh, ZNF638 /// ZNF638-IT1 / RFU, PANK3 / Fold change vs veh, PANK3 / RFU, SH3YL1 / Fold change vs veh, SH3YL1 / RFU, ZEB2 / Fold change vs veh, ZEB2 / RFU, NRIP1 / Fold change vs veh, NRIP1 / RFU, PTTG1IP / Fold change vs veh, PTTG1IP / RFU, CAPN2 / Fold change vs veh, CAPN2 / RFU, MED14 / Fold change vs veh, MED14 / RFU, SNORA58 / Fold change vs veh, SNORA58 / RFU, C1orf63 / Fold change vs veh, C1orf63 / RFU, LRRFIP1 / Fold change vs veh, LRRFIP1 / RFU, NDUFAF7 / Fold change vs veh, NDUFAF7 / RFU, SLC12A2 / Fold change vs veh, SLC12A2 / RFU, IBTK / Fold change vs veh, IBTK / RFU, ESF1 / Fold change vs veh, ESF1 / Fold change vs veh, TMEM50B / RFU, TAOK1 / Fold change vs veh, TAOK1 / RFU, ACBD3 / Fold change vs veh, ACBD3 / RFU, TMA16 / Fold change vs veh, TMA16 / RFU, RWDD3 / Fold change vs veh, RWDD3 / RFU, BCAT1 / Fold change vs veh, BCAT1 / RFU, EDEM3 / Fold change vs veh, EDEM3 / RFU, TMEM33 / Fold change vs veh, TMEM33 / RFU, WDR75 / Fold change vs veh, WDR75 / RFU, AHCTF1 / Fold change vs veh, AHCTF1 / RFU, TFRC / Fold change vs veh, TFRC / RFU, ZDHHC17 / Fold change vs veh, ZDHHC17 / RFU, NOM1 / Fold change vs veh, NOM1 / RFU, ARL8B / Fold change vs veh, ARL8B / RFU, ZBTB11 / Fold change vs veh, ZBTB11 / RFU, TAMM41 / Fold change vs veh, TAMM41 / RFU, KIAA1704 /// LOC100996395 / Fold change vs veh, KIAA1704 /// LOC100996395 / RFU, ING1 / Fold change vs veh, ING1 / RFU, TRMT61B / Fold change vs veh, TRMT61B / RFU, FUBP3 / Fold change vs veh, FUBP3 / RFU, TP53 / Fold change vs veh, TP53 / RFU, TNKS2 / Fold change vs veh, TNKS2 / RFU, ZFP14 / Fold change vs veh, ZFP14 / RFU, ACTR2 / Fold change vs veh, ACTR2 / RFU, PPP3R1 / Fold change vs veh, PPP3R1 / RFU, PIK3R1 / Fold change vs veh, PIK3R1 / RFU, HNRNPA1 / Fold change vs veh, HNRNPA1 / RFU, RNF170 / Fold change vs veh, RNF170 / RFU, ZNF28 / Fold change vs veh, ZNF28 / RFU, RNGTT / Fold change vs veh, RNGTT / RFU, OGT / Fold change vs veh, OGT / RFU, BRD1 / Fold change vs veh, BRD1 / RFU, MARS / Fold change vs veh, MARS / RFU, ZNF655 / Fold change vs veh, ZNF655 / RFU, FAHD1 / Fold change vs veh, FAHD1 / RFU, BDP1 / Fold change vs veh, BDP1 / RFU, LRRCC1 / Fold change vs veh, LRRCC1 / RFU, ARID1A / Fold change vs veh, ARID1A / RFU, ZNF146 / Fold change vs veh, ZNF146 / RFU, ZNF330 / Fold change vs veh, ZNF330 / RFU, GPN3 / Fold change vs veh, GPN3 / RFU, C9orf123 / Fold change vs veh, C9orf123 / RFU, N4BP2L2 / Fold change vs veh, N4BP2L2 / RFU, ARFIP1 / Fold change vs veh, ARFIP1 / RFU, FAM179B / Fold change vs veh, FAM179B / RFU, BCL10 / Fold change vs veh, BCL10 / RFU, UHRF1BP1L / Fold change vs veh, UHRF1BP1L / RFU, BET1 / Fold change vs veh, BET1 / RFU, CNOT2 / Fold change vs veh, CNOT2 / RFU, ZNF268 / Fold change vs veh, ZNF268 / Fold change vs veh, ZNF507 / RFU, DGCR2 / Fold change vs veh, DGCR2 / RFU, WDSUB1 / Fold change vs veh, WDSUB1 / Fold change vs veh, HSP90B1 /// MIR3652 / RFU, ADSS / Fold change vs veh, ADSS / RFU, GK / Fold change vs veh, GK / RFU, ZNF148 / Fold change vs veh, ZNF148 / RFU, TAF9 / Fold change vs veh, TAF9 / RFU, SLC1A5 / Fold change vs veh, SLC1A5 / RFU, SLMO2 / Fold change vs veh, SLMO2 / RFU, ABCC4 / Fold change vs veh, ABCC4 / RFU, LOC101060439 /// RAP1B / Fold change vs veh, LOC101060439 /// RAP1B / RFU, RFX7 / Fold change vs veh, RFX7 / RFU, GTPBP10 / Fold change vs veh, GTPBP10 / RFU, CNEP1R1 / Fold change vs veh, CNEP1R1 / RFU, BIVM-ERCC5 /// ERCC5 / Fold change vs veh, BIVM-ERCC5 /// ERCC5 / RFU, ILF3 / Fold change vs veh, ILF3 / RFU 11762660_at / Fold change /veh 11762660_at / RFU VCAN (11757783_s_at) / Fold change /veh VCAN (11757783_s_at) / RFU DDX43 (11728927_at) / Fold change /veh DDX43 (11728927_at) / RFU KRT8 (11758188_x_at) / Fold change /veh KRT8 (11758188_x_at) / RFU NKD1 (11759106_at) / Fold change /veh NKD1 (11759106_at) / RFU SRD5A1 (11742802_a_at) / Fold change /veh SRD5A1 (11742802_a_at) / RFU TPSAB1 /// TPSB2 (11721975_s_at) / Fold change /veh TPSAB1 /// TPSB2 (11721975_s_at) / RFU GSTM3 (11746129_a_at) / Fold change /veh GSTM3 (11746129_a_at) / RFU IL23R (11737362_x_at) / Fold change /veh IL23R (11737362_x_at) / RFU TMEM51 (11727254_a_at) / Fold change /veh TMEM51 (11727254_a_at) / RFU PIWIL2 (11732686_x_at) / Fold change /veh PIWIL2 (11732686_x_at) / RFU ORM1 (11744905_x_at) / Fold change /veh ORM1 (11744905_x_at) / RFU CCDC152 (11743942_at) / Fold change /veh CCDC152 (11743942_at) / RFU ECM1 (11717891_a_at) / Fold change /veh ECM1 (11717891_a_at) / RFU IL23R (11748794_a_at) / Fold change /veh IL23R (11748794_a_at) / RFU TNFAIP8L3 (11732012_x_at) / Fold change /veh TNFAIP8L3 (11732012_x_at) / RFU MBOAT4 (11741988_at) / Fold change /veh MBOAT4 (11741988_at) / RFU 11764193_at / Fold change /veh 11764193_at / RFU TMEM53 (11763286_at) / Fold change /veh TMEM53 (11763286_at) / RFU MAGEB2 (11727129_at) / Fold change /veh MAGEB2 (11727129_at) / RFU TMEM200A (11744735_a_at) / Fold change /veh TMEM200A (11744735_a_at) / RFU CCDC152 (11751479_a_at) / Fold change /veh CCDC152 (11751479_a_at) / RFU FAM211A (11726209_a_at) / Fold change /veh FAM211A (11726209_a_at) / RFU RGS16 (11746705_a_at) / Fold change /veh RGS16 (11746705_a_at) / RFU VCAN (11755009_s_at) / Fold change /veh VCAN (11755009_s_at) / RFU RHOB (11743442_s_at) / Fold change /veh RHOB (11743442_s_at) / RFU RGS16 (11720943_a_at) / Fold change /veh RGS16 (11720943_a_at) / RFU RGS16 (11720944_at) / Fold change /veh RGS16 (11720944_at) / RFU, VPS4B / Fold change vs veh, VPS4B / RFU, CREB1 / Fold change vs veh, CREB1 / RFU, DNAJC13 / Fold change vs veh, DNAJC13 / RFU, GNAQ / Fold change vs veh, GNAQ / RFU, CDK5R1 / Fold change vs veh, CDK5R1 / RFU, ZRANB3 / Fold change vs veh, ZRANB3 / RFU, CUL4A / Fold change vs veh, CUL4A / RFU, CCNY / Fold change vs veh, CCNY / RFU, UFL1 / Fold change vs veh, UFL1 / RFU, COG3 / Fold change vs veh, COG3 / RFU, DIAPH2 / Fold change vs veh, DIAPH2 / RFU, SKA2 / Fold change vs veh, SKA2 / RFU, AFF3 / Fold change vs veh, AFF3 / RFU, LMF1 / Fold change vs veh, LMF1 / RFU, IPO11 / Fold change vs veh, IPO11 / RFU, DFFB / Fold change vs veh, DFFB / RFU, FOXP1 / Fold change vs veh, FOXP1 / RFU, CARD8 / Fold change vs veh, CARD8 / RFU, STRN3 / Fold change vs veh, STRN3 / RFU, ADK / Fold change vs veh, ADK / RFU, RASSF2 / Fold change vs veh, RASSF2 / RFU, WIPF1 / Fold change vs veh, WIPF1 / RFU, LARP1B / Fold change vs veh, LARP1B / RFU, RASA1 / Fold change vs veh, RASA1 / RFU, RB1 / Fold change vs veh, RB1 / RFU, PPFIA1 / Fold change vs veh, PPFIA1 / RFU, MAT2A / Fold change vs veh, MAT2A / RFU, CCT5 / Fold change vs veh, CCT5 / RFU, WDR92 / Fold change vs veh, WDR92 / RFU, CUX1 / Fold change vs veh, CUX1 / RFU, TTC7A / Fold change vs veh, TTC7A / RFU, TMEM135 / Fold change vs veh, TMEM135 / RFU, DEPTOR / Fold change vs veh, DEPTOR / RFU, CPM / Fold change vs veh, CPM / RFU, DNAJB6 / Fold change vs veh, DNAJB6 / RFU, CACNA2D3 / Fold change vs veh, CACNA2D3 / RFU, DTX4 / Fold change vs veh, DTX4 / RFU, TFCP2 / Fold change vs veh, TFCP2 / RFU, GMCL1 /// GMCL1P1 / Fold change vs veh, GMCL1 /// GMCL1P1 / RFU, AEBP2 / Fold change vs veh, AEBP2 / RFU, SNHG1 /// SNORD22 /// SNORD25 /// SNORD26 /// SNORD27 /// SNORD28 /// SNORD29 /// SNORD31 / Fold change vs veh, SNHG1 /// SNORD22 /// SNORD25 /// SNORD26 /// SNORD27 /// SNORD28 /// SNORD29 /// SNORD31 / Fold change (Aza/veh), C12orf56 (ProbeSet 11735607_a_at) / Fold change (ACY-1035/veh), C12orf56 (ProbeSet 11735607_a_at) / Fold change (Aza/veh), FGFR1OP (ProbeSet 11751329_s_at) / Fold change (ACY-1035/veh), FGFR1OP (ProbeSet 11751329_s_at) / Fold change (Aza/veh), VPS36 (ProbeSet 11739960_a_at) / Fold change (ACY-1035/veh), VPS36 (ProbeSet 11739960_a_at) / RFU SYPL1 (11715823_x_at) / Fold change /veh SYPL1 (11715823_x_at) / RFU IGFBP7 (11715501_s_at) / Fold change /veh IGFBP7 (11715501_s_at) / RFU REEP3 (11722064_at) / Fold change /veh REEP3 (11722064_at) / RFU IGLL1 (11728026_x_at) / Fold change /veh IGLL1 (11728026_x_at): dose or concentration left out as unconfirmed
# Settings: MV-4-11 cells, 48 hours
smiles,measurement,value
Nc1ccc(-c2cccs2)cc1NC(=O)c1ccc2c(c1)cc(C1CC1)n2CCN1CCOCC1 [ACY-1035],RFU OR2T12 /// OR2T33 /// OR2T8 (11738714_s_at),6.34 RFU
